Measured values: patent US20230227484A1, “PYRIMIDINE COMPOUND AS AXL INHIBITOR” (NANJING CHIA TAI TIANQING PHARMACEUTICAL CO., LTD., priority 2020, published 2023)

How the values were obtained:
AXL kinase = molecular target: T1, AXL kinase (Homo sapiens, UniProt P30530); assay: Inhibitory activity of compound against AXL kinase (HTRF KinEASE); format: biochemical; conditions: AXL enzyme (Carna, 08-107), ATP 15 μM; "<" means below detection limit of the test
T1 construct: purchased Carna 08-107
T1 sequence (P30530 473-894 limits assumed): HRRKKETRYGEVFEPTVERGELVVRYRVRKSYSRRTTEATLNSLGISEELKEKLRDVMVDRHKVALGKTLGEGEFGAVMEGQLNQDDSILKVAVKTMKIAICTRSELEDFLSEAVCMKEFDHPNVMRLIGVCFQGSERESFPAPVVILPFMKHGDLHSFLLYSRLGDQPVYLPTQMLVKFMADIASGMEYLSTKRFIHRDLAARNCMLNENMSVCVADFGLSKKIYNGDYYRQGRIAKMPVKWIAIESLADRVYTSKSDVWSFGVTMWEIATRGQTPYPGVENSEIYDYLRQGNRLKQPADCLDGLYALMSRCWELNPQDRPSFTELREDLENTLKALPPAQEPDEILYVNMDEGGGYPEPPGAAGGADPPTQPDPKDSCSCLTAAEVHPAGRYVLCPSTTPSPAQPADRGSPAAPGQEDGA
In short: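 AXL enzyme (final 0.016 ng/uL) was preincubated with compound (8 concentrations from 1 μM, ½ log steps) for 15 min at room temperature, then reacted with TK Substrate 3-biotin (final 1) and ATP (final 15 μM) for 45 min at 25° C. Phosphorylation was read by HTRF (TK antibody-cryptate, streptavidin-XL665, 1 h); IC50 from variable-slope dose-response fit.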

[1] = test system: MV-4-11 (human myeloid monocytic leukemia cell line); assay: Proliferation inhibition activity of compounds to MV-4-11 cells (CellTiter-Glo); format: cell-based; conditions: MV4-11 cells, 72 h dosing
Protocol: MV-4-11 (human myeloid monocytic leukemia cell line, culture medium: JIMDM+10% fetal bovine serum) is purchased from Cobioer Biosciences Co., Ltd and cultured in a 5% C02 incubator at 37° C. The cells in a logarithmic growth phase are plated in a 96-well plate at cell densities of 8000 cells/well, 6000 cells/well, 2000 cells/well, 2000 cells/well and 3000 cells/well, and a blank control group is set at the same time.
A compound to be tested and the positive drug are dissolved in dimethyl sulfoxide to prepare a 10 mM stock solution, which is then stored in −80° C. refrigerator for long-time storage. After the cells are plated for 24 h, the 10 mM compound stock solution is diluted with dimethyl sulfoxide to obtain a working solution having a 200-fold concentration (the highest concentration is 200 or 2000 μM, a 3-fold gradient, a total of 10 concentrations), and 3 μL of the working solution of each concentration is added to 197 μL of complete medium, and diluted into a working solution of 3-fold concentration. 50 μL of the working solution is then taken and added to a 100 μL cell culture medium (a final concentration of dimethyl sulfoxide is 0.5%, v/v), and two complex holes are set for each concentration. After 72 h of dosing treatment, 50 μl of CellTiter-Glo® (purchased from Promega) is added to each well. Fluorescence signals are measured on Envision (PerkinElmer) according to an operating procedure of the specification. GraphPad Prism 5 software log(inhibitor) vs. response-Variable slope is used to fit a dose-response curve, so as to obtain the IC50 value of the compound to the inhibition of cell-proliferation. The calculation formulation of the inhibition rate is as follows: […]
wherein: signal value of subject: a mean fluorescence signal of cell+medium+compound group; signal value of blank group: a mean fluorescence signal of medium group (containing 0.5% DMSO); signal value of negative control group: a mean fluorescence signal of cell+medium group (containing 0.5% DMSO).

[2] = Pharmacokinetic study of compounds on ICR mice; format: in vivo; conditions: mouse, po, male ICR mice, plasma; for Cmax / Tmax / half-life: 10 mg-kg^1 by gavage; for AUC(0-t): 10 mg/kg-kg^1 by gavage, read-out: AUC0-24
Protocol: Each compound is prepared with DMSO into a 10 mg/mL stock solution.
Preparation of mixed solvent: Tween 80: PEG400: Water=1:9:90 (v/v/v)
450 μl of the compound DMSO stock solution with a concentration of 10 mg/nmL is accurately sucked into a glass bottle, and added with an appropriate volume of DMSO and mixed solvent, wherein a ratio of the solvent in the final formulation is DMSO: mixed solvent (v/v)=10:90. The mixed solution is vortexed (or ultrasonically treated), and dispersed uniformly to obtain 4.5 mL. administration test solutions with a concentration of 1 mg/nL, respectively.
Male 6-10 week old ICR mice (sourced from: Beijing Vital River Laboratory Animal Technology Co., Ltd.) are taken, 6 mice in each group. The mice are fasted overnight and fed 4 h after the administration. On the day of the experiment, the mice are administrated with 10 mg-kg^1 of compound test solution by gavage. After administration, about 100 μL of blood is harvested from the orbits of the mice at 0 min, 5 mmn, 15 mmn, 30 min, 14 h 2 h, 4 h, 8 h, and 24 h, and placed in EDTA-K2 anticoagulant tubes. The whole blood sample is centrifuged at 1500 to 1600 g for 10 mm, and the plasma obtained by separation is stored in a refrigerator at −40 to −20° C. for biological sample analysis. The blood drug concentration is determined by an LC-MS/MS method.
A non-compartmental model in Pharsight Phoenix 7.0 is used to calculate pharmacokinetic parameters. The specific results are shown in 5 the table below.

[3] = test system: human acute monocytic leukemia cell MV-4-11 xenograft tumor; assay: In-vivo efficacy of compound for MV4-11 xenograft tumor model of nude mouse; conditions: MV4-11, po
[4] = test system: human acute monocytic leukemia cell MV-4-11 xenograft tumor; assay: as above; conditions: MV4-11, po, intragastric 5 mg/kg/d, once a day, end of experiment, MV-4-11 xenograft nude mice; for response vs control in vivo at 5 mg/kg/day: read-out: Relative tumor proliferation rate (% T/C); for inhibition in vivo at 5 mg/kg/day: read-out: Tumor growth inhibition rate (TGI %)
Protocol: Inhibitory effects of a compound and a positive drug on the in-vivo tumor growth of a xenograft tumor model of a nude mouse on human acute monocytic leukemia cell MV-4-11 are tested.
MV-4-11 cells in a logarithmic growth phase are harvested, resuspended after cell counting, and adjusted in cell concentration to 7.0×10^7 cells/mL. The resuspended solution is injected into the right armpit of the nude mice subcutaneously. Each animal is inoculated with 200 μL (14×10^6 cells) of the suspended solution to establish a MV-4-11 xenograft tumor model. Afer the tumor volume reaches 100-300 mm^3, tumor-bearing mice in good health and similar tumor volume are selected.
The compound and the positive drug are vortexed with a suitable solvent and then ultrasonicated to completely dissolve the compound. Then, an appropriate volume of citric acid buffer is slowly added, and the mixed solution is vortexed to make the solution mixed uniformly to obtain administrative formulations having concentrations of 0.1, 0.5, and 1 mg-mL^−1.
Solvent control group: PEG400 & citric acid buffer (20:80, v:v).
The modeled mice are randomly divided into groups (n=6), and administrated with the relevant compounds and positive drugs on the day of grouping. After 21 days or after the tumor volume of the solvent control group reaches 2000 mm^3, the experiment is terminated (whichever reaches the index first), and the administration volume is 10 mL-kg^−1. Both the compound and the positive drug are administered by gavage, once a day. After the experiment starts, the tumor diameter and animal body weight are measured twice a week, and the tumor volume is calculated.
The tumor volume(TV) calculation formula is: tumor volume(mm^3)=l×w^2/2,
The calculation formula of relative tumor volume(RTV) is: RTV=TVt/TVinitial
The calculation formula of relative tumor proliferation rate (% T/C) is: % T/C=100%×(RTVT/RTVC)

SMILES	IC50 (AXL kinase) [nM]	IC50 [1] [nM]	Cmax [2] [ng/mL]	Tmax [2] [h]	half-life [2] [h]	AUC(0-t) [2] [ng·h/mL]	inhibition in vivo at 20 mg/kg/day ([3]; intragastric 20 mg/kg/d, once a day, end of experiment, MV-4-11 xenograft nude mice, read-out: Tumor growth inhibition rate (TGI %)) [%]	response vs control in vivo at 20 mg/kg/day ([3]; read-out: Relative tumor proliferation rate (% T/C)) [%]	response vs control in vivo at 5 mg/kg/day [4] [%]	inhibition in vivo at 5 mg/kg/day [4] [%]
CP(C)(=O)c1cc(F)ccc1Nc1nc(Nc2ccc3c(c2)CC[C@@H](N2CCCC2)CC3)ncc1Cl [Example 51, (S)-(2-((5-chloro-2-((7-(pyrrolidin-1-yl)-6,7,8,9-tetrahydro-5H-benzo[7]annulen-2-yl)amino)pyrimidin-4-yl)amino)-5-fluorophenyl)dimethyl phosphine oxide]	2.6	4.53	419	0.5	2.17	1070				
Nc1nc(Nc2ccc3c(c2)CC[C@@H](N2CCCC2)CC3)nn1-c1cc2c(nn1)-c1ccccc1CCC2 [Positive drug 1 (BGB324), BGB324]		208					32	71		
CN1CCN(Cc2ccc(Nc3ncc(Cl)c(Nc4ccccc4S(=O)(=O)N(C)C)n3)cc2)CC1 [Positive drug 2 (TP0903), TP0903, reference compound]		12	26.8	0.25		52.2			42	62
Clc1cnc(Nc2ccc3c(c2)CC[C@@H](N2CCCC2)CC3)nc1Nc1ccccc1-c1ncc[nH]1 [Example 18, (S)—N^4-(2-(1H-imidazol-2-yl)phenyl)-5-chloro-N^2-(7-(pyrrolidin-1-yl)-6,7,8,9-tetrahydro-5H-benzo[7]annulen-2-yl)pyrimidine-2,4-diamine]	0.19		249	2	3.03	2300			37	71
CN1Cc2cccc(Nc3nc(Nc4ccc5c(c4)CC[C@@H](N4CCCC4)CC5)ncc3Cl)c2C1=O [Example 28, (S)-7-((5-chloro-2-(((7-(pyrrolidin-1-yl)-6,7,8,9-tetrahydro-5H-benzo[7]annulen-2-yl)amino))pyrimidin-4-yl)amino)-2-methylisoindolin-1-one]	0.31		226	8		3000			5.9	104
CP(C)(=O)c1cc(Cl)ccc1Nc1nc(Nc2ccc3c(c2)CC[C@@H](N2CCCC2)CC3)ncc1Cl [Example 52]	1.06	5.32	429	0.5	2.42	1150				
